Source: ChEMBL document CHEMBL3576778, “Structure-Activity Relationship Studies of a Series of Semisynthetic Lipopeptides Leading to the Discovery of Surotomycin, a Novel Cyclic Lipopeptide Being Developed for the Treatment of Clostridium difficile-Associated Diarrhea” (J Med Chem, 2015)
Converted amounts (≈) assume the structure as drawn.

What was measured:
Assay type in all cases: functional
Enterococcus faecalis = assay: Antimicrobial activity against daptomycin-resistant Enterococcus faecalis ATCC 49452 incubated anaerobically at 37 degC for 48 hrs by agar dilution method; details: ATCC 49452, 48 h
Staphylococcus aureus = assay: Antimicrobial activity against daptomycin-susceptible Staphylococcus aureus ATCC 29213 incubated anaerobically at 37 degC for 48 hrs by agar dilution method; details: ATCC 29213, 48 h
Clostridioides difficile [1] = assay: Antimicrobial activity against daptomycin-resistant Clostridium difficile NAP1 incubated anaerobically at 37 degC for 48 hrs by agar dilution method; details: NAP1, 48 h
Enterococcus faecium = assay: Antimicrobial activity against daptomycin-resistant Enterococcus faecium ATCC 6569 incubated anaerobically at 37 degC for 48 hrs by agar dilution method; details: ATCC 6569, 48 h
Clostridioides difficile [2] = assay: Antimicrobial activity against daptomycin-resistant Clostridium difficile ATCC 43596 infected in Syrian golden hamster model of Clostridium difficile-associated diarrhea assessed as protection against microbial infection by measuring survival at day 25 to 26 at 0.5 mg/kg treated once daily for 5 consecutive days starting 4 hrs after spore inoculation

Molecule `C[C@H]1NC(=O)[C@@H](CC(=O)O)NC(=O)[C@H](CCCN)NC(=O)CNC(=O)[C@@H](NC(=O)[C@H](CC(=O)O)NC(=O)[C@H](CC(N)=O)NC(=O)[C@H](Cc2c[nH]c3ccccc23)NC(=O)c2ccc(-c3ccc(Cl)cc3)cc2)[C@@H](C)OC(=O)[C@H](CC(=O)c2ccccc2N)NC(=O)[C@H]([C@@H](C)CC(=O)O)NC(=O)[C@@H](CO)NC(=O)CNC(=O)[C@H](CC(=O)O)NC1=O` has an MIC (Enterococcus faecalis) greater than 32 µg/mL, an MIC (Staphylococcus aureus) of 4 µg/mL (≈ 2.38 µM) and an MIC (Clostridioides difficile [1]) of 16 µg/mL (≈ 9.52 µM). It also gave an MIC (Enterococcus faecium) greater than 32 µg/mL.

`CCCCC[C@H]1CC[C@H](C(=O)N[C@@H](Cc2c[nH]c3ccccc23)C(=O)N[C@@H](CC(N)=O)C(=O)N[C@@H](CC(=O)O)C(=O)N[C@@H]2C(=O)NCC(=O)N[C@@H](CCCN)C(=O)N[C@H](CC(=O)O)C(=O)N[C@H](C)C(=O)N[C@@H](CC(=O)O)C(=O)NCC(=O)N[C@H](CO)C(=O)N[C@@H]([C@@H](C)CC(=O)O)C(=O)N[C@@H](CC(=O)c3ccccc3N)C(=O)O[C@@H]2C)CC1` was tested, and the MIC (Enterococcus faecalis) was greater than 32 µg/mL, the MIC (Staphylococcus aureus) was 0.5 µg/mL (≈ 0.304 µM) and the MIC (Clostridioides difficile [1]) was 0.5 µg/mL (≈ 0.304 µM). The survival at 0.5 mg/kg (Clostridioides difficile [2]) was 60% and the MIC (Enterococcus faecium) was 16 µg/mL (≈ 9.72 µM).

`CCCCc1ccc(/C=C(\C)C(=O)N[C@@H](Cc2c[nH]c3ccccc23)C(=O)N[C@@H](CC(N)=O)C(=O)N[C@@H](CC(=O)O)C(=O)N[C@@H]2C(=O)NCC(=O)N[C@@H](CCCN)C(=O)NC(CC(=O)O)C(=O)N[C@H](C)C(=O)N[C@@H](CC(=O)O)C(=O)NCC(=O)N[C@H](CO)C(=O)N[C@@H]([C@@H](C)CC(=O)O)C(=O)N[C@@H](CC(=O)c3ccccc3N)C(=O)O[C@@H]2C)cc1` (single isomer, unassigned) gave an MIC (Enterococcus faecalis) greater than 32 µg/mL, an MIC (Staphylococcus aureus) of 1 µg/mL (≈ 0.6 µM) and an MIC (Clostridioides difficile [1]) of 2 µg/mL (≈ 1.2 µM). For the same molecule, the MIC (Enterococcus faecium) was 32 µg/mL (≈ 19.2 µM).

In the case of `CC(C)CCCCCCCCCCC(=O)N[C@@H](Cc1c[nH]c2ccccc12)C(=O)N[C@@H](CC(N)=O)C(=O)N[C@@H](CC(=O)O)C(=O)N[C@@H]1C(=O)NCC(=O)N[C@@H](CCCN)C(=O)NC(CC(=O)O)C(=O)N[C@H](C)C(=O)N[C@@H](CC(=O)O)C(=O)NCC(=O)N[C@H](CO)C(=O)N[C@@H]([C@@H](C)CC(=O)O)C(=O)N[C@@H](CC(=O)c2ccccc2N)C(=O)O[C@@H]1C` (single isomer, unassigned), the MIC (Enterococcus faecalis) is reported as 16 µg/mL (≈ 9.54 µM), the MIC (Staphylococcus aureus) is reported as 0.125 µg/mL (≈ 0.0745 µM) and the MIC (Clostridioides difficile [1]) is reported as 1 µg/mL (≈ 0.596 µM). For the same molecule, the MIC (Enterococcus faecium) was 4 µg/mL (≈ 2.39 µM).

With `CCCCCC12CCC(C(=O)N[C@@H](Cc3c[nH]c4ccccc34)C(=O)N[C@@H](CC(N)=O)C(=O)N[C@@H](CC(=O)O)C(=O)N[C@@H]3C(=O)NCC(=O)N[C@@H](CCCN)C(=O)N[C@H](CC(=O)O)C(=O)N[C@H](C)C(=O)N[C@@H](CC(=O)O)C(=O)NCC(=O)N[C@H](CO)C(=O)N[C@@H]([C@@H](C)CC(=O)O)C(=O)N[C@@H](CC(=O)c4ccccc4N)C(=O)O[C@@H]3C)(CC1)CC2` the MIC (Enterococcus faecalis) was 32 µg/mL (≈ 19.1 µM), the MIC (Staphylococcus aureus) was 0.25 µg/mL (≈ 0.149 µM) and the MIC (Clostridioides difficile [1]) was 1 µg/mL (≈ 0.598 µM). The survival at 0.5 mg/kg (Clostridioides difficile [2]) was 60% and the MIC (Enterococcus faecium) was 16 µg/mL (≈ 9.56 µM).

`C[C@H]1NC(=O)C(CC(=O)O)NC(=O)[C@H](CCCN)NC(=O)CNC(=O)[C@@H](NC(=O)[C@H](CC(=O)O)NC(=O)[C@H](CC(N)=O)NC(=O)[C@H](Cc2c[nH]c3ccccc23)NC(=O)CCCCCC2CCCCC2)[C@@H](C)OC(=O)[C@H](CC(=O)c2ccccc2N)NC(=O)[C@H]([C@@H](C)CC(=O)O)NC(=O)[C@@H](CO)NC(=O)CNC(=O)[C@H](CC(=O)O)NC1=O` (single isomer, unassigned) showed an MIC (Enterococcus faecalis) greater than 32 µg/mL, an MIC (Staphylococcus aureus) of 1 µg/mL (≈ 0.607 µM) and an MIC (Clostridioides difficile [1]) of 2 µg/mL (≈ 1.21 µM). It also gave an MIC (Enterococcus faecium) of 16 µg/mL (≈ 9.72 µM).
